Source: patent USRE39616E1, “Aminoindan derivatives” (priority 1996, dated 2007)
pIC50: −log10 of the molar value. Like-named read-outs stand apart in the source and are kept apart here.

Columns and labels:
[1] = target: T1, whole brain AChE (Mus musculus, UniProt P21836); conditions: for AChE Inhibition Ex vivo ED50 (AC): mice, whole brain, at peak of activity
T1 sequence (P21836 32-614): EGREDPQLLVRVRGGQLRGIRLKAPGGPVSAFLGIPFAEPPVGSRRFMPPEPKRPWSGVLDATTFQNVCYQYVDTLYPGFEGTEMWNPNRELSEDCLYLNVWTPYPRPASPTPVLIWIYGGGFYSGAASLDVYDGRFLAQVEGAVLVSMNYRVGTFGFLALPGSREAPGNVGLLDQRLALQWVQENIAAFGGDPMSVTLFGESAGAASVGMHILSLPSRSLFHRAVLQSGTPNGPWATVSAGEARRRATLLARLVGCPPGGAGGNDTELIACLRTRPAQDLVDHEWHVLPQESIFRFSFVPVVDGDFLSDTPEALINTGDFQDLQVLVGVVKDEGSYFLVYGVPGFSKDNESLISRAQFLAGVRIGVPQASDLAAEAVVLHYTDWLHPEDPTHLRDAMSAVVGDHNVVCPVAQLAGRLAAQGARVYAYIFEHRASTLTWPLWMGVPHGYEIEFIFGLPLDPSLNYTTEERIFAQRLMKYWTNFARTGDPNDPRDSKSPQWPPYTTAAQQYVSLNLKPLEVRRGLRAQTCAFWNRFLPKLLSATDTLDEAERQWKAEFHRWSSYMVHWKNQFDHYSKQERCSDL
Description: Test drugs or saline were administered sub-cutaneously to male mice (Sabra strain, 28-35 g). […] The mice were sacrificed 15, 30, 50, 70, 90, 120 or 180 minutes after drug administration, the brains rapidly removed (minus cerebellum), weighed and homogenized in 0.1 M phosphate buffer, pH 8.0, containing Triton (1 mg/100 g tissue) and centrifuged to remove cell debris. Aliquots (25 μl) of the supernatant were then incubated with acetylthiocholine and DTNB. AChE activity was measured as described above. The % inhibition of whole brain AChE by each dose of drug was calculated by comparison with enzyme activity from 3 saline treated control mice run at the same time.

[2] = tested on: mice; conditions: mouse, in vivo
Description: Therapeutic Ratio was calculated as LD50 divided by ED50 of ex vivo acetylcholine esterase inhibition.

[3] = target: T2, MAO-A (Mus musculus, UniProt Q64133); assay: Inhibition of MAO activity ex vivo (brain); type: in vivo, mice; conditions: mice, brain tissue
T2 construct: from tissue; host or cells: mouse brain
T2 sequence (Q64133 1-526): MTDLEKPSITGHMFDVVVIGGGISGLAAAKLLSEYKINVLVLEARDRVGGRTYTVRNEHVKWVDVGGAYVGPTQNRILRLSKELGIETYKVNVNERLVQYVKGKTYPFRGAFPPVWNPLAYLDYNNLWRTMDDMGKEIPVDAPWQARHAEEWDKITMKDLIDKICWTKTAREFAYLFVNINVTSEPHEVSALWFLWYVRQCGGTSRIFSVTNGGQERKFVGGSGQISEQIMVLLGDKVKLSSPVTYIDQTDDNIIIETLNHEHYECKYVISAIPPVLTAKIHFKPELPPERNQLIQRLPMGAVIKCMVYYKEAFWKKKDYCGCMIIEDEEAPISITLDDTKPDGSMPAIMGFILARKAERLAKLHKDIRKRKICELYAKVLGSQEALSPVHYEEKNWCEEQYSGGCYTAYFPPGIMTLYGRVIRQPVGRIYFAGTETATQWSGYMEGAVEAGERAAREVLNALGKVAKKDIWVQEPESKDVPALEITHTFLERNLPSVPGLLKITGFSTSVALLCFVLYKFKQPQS
Description: (§1) Substrate concentrations used were 50 μM (PEA) and 1 mM (5-HT).
(§2) Male Sabra mice, weighing 45-50 g were injected with test compound solutions (prepared in 0.9% saline). Each dose was administered to two or three mice. The mice were sacrificed two hours after drug administration or at a time corresponding to the peak AChE inhibition time (see Table 11). The brain and liver were rapidly dissected and stored in appropriate vials on ice. The tissues were weighed, diluted to ½ in sucrose 0.3M and stored at −20° C. before performance of the MAO assay described above. The results given in Table 11 relate to measurements made on brain tissue only.

[4] = target: T3, MAO-B (Mus musculus, UniProt Q8BW75); assay: Inhibition of MAO activity ex vivo (brain); type: in vivo, mice; conditions: mice, brain tissue
T3 construct: from tissue; host or cells: mouse brain
T3 sequence (Q8BW75 1-520): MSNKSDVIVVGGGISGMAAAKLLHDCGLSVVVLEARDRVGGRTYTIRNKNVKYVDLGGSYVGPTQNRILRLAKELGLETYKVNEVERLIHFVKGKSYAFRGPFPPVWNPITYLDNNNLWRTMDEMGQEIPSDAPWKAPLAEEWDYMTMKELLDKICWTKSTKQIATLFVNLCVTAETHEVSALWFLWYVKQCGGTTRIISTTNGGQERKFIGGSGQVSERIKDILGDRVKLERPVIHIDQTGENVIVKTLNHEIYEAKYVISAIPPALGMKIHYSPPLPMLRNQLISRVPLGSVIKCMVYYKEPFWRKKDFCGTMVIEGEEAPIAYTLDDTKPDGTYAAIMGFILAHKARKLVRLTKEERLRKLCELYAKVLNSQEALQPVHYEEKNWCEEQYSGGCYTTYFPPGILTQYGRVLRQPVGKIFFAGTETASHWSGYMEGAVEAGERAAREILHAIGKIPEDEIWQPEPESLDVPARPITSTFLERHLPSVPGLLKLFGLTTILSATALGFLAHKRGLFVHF
Description: as §1, §2

[5] = target: T4, Human erythrocyte acetylcholinesterase (Homo sapiens, UniProt P22303); assay: biochemical; type: biochemical; conditions: AChE Inhibition In vitro IC50
T4 construct: Human erythrocyte acetylcholinesterase (type XIII, Sigma Israel); purchased Sigma Israel type XIII; host or cells: human erythrocytes
T4 sequence (P22303 32-617 isoform P22303-2 limits assumed): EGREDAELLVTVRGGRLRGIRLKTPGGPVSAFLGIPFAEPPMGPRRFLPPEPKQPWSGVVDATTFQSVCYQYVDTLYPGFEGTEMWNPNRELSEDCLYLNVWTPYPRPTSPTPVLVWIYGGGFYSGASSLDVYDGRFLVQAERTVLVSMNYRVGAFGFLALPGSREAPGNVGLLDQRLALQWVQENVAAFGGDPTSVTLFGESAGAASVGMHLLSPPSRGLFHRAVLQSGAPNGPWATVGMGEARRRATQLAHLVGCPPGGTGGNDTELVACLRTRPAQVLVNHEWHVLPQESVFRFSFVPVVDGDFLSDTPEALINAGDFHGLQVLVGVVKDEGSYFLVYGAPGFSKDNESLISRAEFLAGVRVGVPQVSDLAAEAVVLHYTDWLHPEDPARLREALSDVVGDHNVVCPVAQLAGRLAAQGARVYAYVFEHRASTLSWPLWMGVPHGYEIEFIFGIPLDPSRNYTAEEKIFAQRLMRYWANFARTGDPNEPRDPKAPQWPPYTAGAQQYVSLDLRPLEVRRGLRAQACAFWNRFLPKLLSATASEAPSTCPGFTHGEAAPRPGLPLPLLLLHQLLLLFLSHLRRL
Description: Human erythrocyte acetylcholinesterase (type XIII, Sigma Israel), was prepared in a stock solution of 1 U/ml, containing Triton (1%) and bovine serum albumin (0.05%) in phosphate buffer (pH 8). The enzyme (0.05U) was incubated with 3-5 different concentrations of test compound (in triplicate) for periods of from 15 to 60 minutes at 37° C. […] The percentage inhibition of AChE by each concentration of drug is calculated by comparison with that of enzyme in the absence of drug.

[6] = target: T5, MAO-A (Rattus norvegicus, UniProt P21396); assay: Inhibition of MAO activity in vitro, 5-HT as substrate; type: biochemical; set-up: The MAO enzyme source was a homogenate of rat brain in 0.3M sucrose; from tissue; host or cells: rat brain homogenate, 600 g supernatant; conditions: 5-HT substrate
T5 sequence (P21396 1-526): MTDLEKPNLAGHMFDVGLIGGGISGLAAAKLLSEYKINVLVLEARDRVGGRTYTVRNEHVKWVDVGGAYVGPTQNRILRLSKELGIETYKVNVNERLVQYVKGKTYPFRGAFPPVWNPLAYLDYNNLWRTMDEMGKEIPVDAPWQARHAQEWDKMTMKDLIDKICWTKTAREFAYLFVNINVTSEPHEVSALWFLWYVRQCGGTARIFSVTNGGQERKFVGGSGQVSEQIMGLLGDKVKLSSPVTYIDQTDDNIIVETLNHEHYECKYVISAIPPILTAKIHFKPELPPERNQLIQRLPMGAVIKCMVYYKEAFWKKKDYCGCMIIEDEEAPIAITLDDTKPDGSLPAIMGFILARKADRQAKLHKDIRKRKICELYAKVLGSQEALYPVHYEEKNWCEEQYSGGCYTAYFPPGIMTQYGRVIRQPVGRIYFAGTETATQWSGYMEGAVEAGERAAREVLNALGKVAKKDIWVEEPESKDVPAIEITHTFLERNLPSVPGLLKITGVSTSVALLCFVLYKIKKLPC
Description: as §1

[7] = target: T6, MAO-B (Rattus norvegicus, UniProt P19643); assay: Inhibition of MAO activity in vitro, PEA as substrate; type: biochemical; set-up: The MAO enzyme source was a homogenate of rat brain in 0.3M sucrose; from tissue; host or cells: rat brain homogenate, 600 g supernatant
T6 sequence (P19643 1-520): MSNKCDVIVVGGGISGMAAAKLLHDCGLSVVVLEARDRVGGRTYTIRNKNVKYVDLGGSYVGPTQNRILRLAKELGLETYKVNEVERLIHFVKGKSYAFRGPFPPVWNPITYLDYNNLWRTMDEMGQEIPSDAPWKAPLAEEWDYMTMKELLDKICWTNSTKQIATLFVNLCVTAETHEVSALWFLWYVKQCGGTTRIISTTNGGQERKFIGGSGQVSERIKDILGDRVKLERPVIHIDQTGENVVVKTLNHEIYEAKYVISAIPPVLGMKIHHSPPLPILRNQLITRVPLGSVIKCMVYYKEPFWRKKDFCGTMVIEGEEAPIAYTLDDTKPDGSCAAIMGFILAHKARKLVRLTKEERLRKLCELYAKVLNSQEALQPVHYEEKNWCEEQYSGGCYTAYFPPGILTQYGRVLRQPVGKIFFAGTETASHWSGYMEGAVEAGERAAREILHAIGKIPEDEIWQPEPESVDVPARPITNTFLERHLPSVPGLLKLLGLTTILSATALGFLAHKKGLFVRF
Description: as §1

Row | SMILES | AChE Inhibition Ex vivo ED50 (AC) [1] [µmol/kg] | AChE Inhibition Time to peak activity t ([1]; mouse, in vivo) [min] | Acute Toxicity LD50 (LD) [2] [µmol/kg] | Therapeutic Ratio LD/AC [2] | MAO-A Inhibition Ex vivo ED50 [3] [µmol/kg] | MAO-B Inhibition Ex vivo ED50 [4] [µmol/kg] | pIC50 [5] | pIC50 ([6]; rat brain homogenate, read-out: MAO-A Inhibition In vitro IC50) | pIC50 ([7]; rat brain homogenate, read-out: MAO-B Inhibition In vitro IC50) | pIC50 ([6]; MAO-A Inhibition In vitro IC50, rat brain homogenate) | pIC50 ([7]; MAO-B Inhibition In vitro IC50, rat brain homogenate)
1 | C#CCNC1CCc2ccc(OC(=O)N(C)Cc3ccccc3)cc21 (stereo not shown) [Compound 63] | 140 | 60 to 90 | 1300 | 9.3 | >300 | >300 | 5.60 | 4.40 | 3.92 | – | –
2 | C#CCNC1CCc2ccc(OC(=O)N(C)CCCCCC)cc21 (stereo not shown) [Compound 36] | >400 | – | >1000 | – | >100 | >100 | 4.82 | – | – | < 3.00 | < 3.00
